Measurements as given in PubChem BioAssay (NCI).
Several values for one entry are separate records, joined by “and”; a condition that tells them apart may be missing. Identical values can stand only once.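 Briefly, cells in 96-well plates were exposed to five compound concentrations for 48 h, and endpoints were estimated by linear interpolation. GI50 marks 50% less growth. The concentration for full growth arrest is given as TGI.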

Tests used:
Experiment in all cases: growth of human tumour cells (NCI), 48 h
ACHN renal = test system: ACHN renal
MALME-3M melanoma = test system: MALME-3M melanoma
SF-539 CNS = test system: SF-539 CNS
SF-295 CNS = test system: SF-295 CNS
SK-OV-3 ovarian = test system: SK-OV-3 ovarian
DU-145 prostate = test system: DU-145 prostate
TK-10 renal = test system: TK-10 renal
NCI/ADR-RES ovarian = test system: NCI/ADR-RES ovarian
RXF 393 renal = test system: RXF 393 renal
OVCAR-4 ovarian = test system: OVCAR-4 ovarian
HOP-92 NSCLC = test system: HOP-92 NSCLC

SMILES	TGI (ACHN renal) [µM]	TGI (MALME-3M melanoma) [µM]	TGI (SF-539 CNS) [µM]	TGI (SF-295 CNS) [µM]	TGI (SK-OV-3 ovarian) [µM]	TGI (DU-145 prostate) [µM]	TGI (TK-10 renal)	TGI (NCI/ADR-RES ovarian)	TGI (RXF 393 renal)	TGI (OVCAR-4 ovarian) [µM]	TGI (HOP-92 NSCLC) [µM]	GI50 (MALME-3M melanoma) [µM]	GI50 (HOP-92 NSCLC) [µM]	GI50 (ACHN renal) [µM]	GI50 (SF-539 CNS) [µM]	GI50 (DU-145 prostate) [µM]	GI50 (TK-10 renal) [µM]	GI50 (NCI/ADR-RES ovarian) [µM]	GI50 (RXF 393 renal) [µM]	GI50 (OVCAR-4 ovarian) [µM]
CS(=O)(=O)c1nc(-c2cc3c(c(S(C)(=O)=O)n2)CCCC3)cc2c1CCCC2	> 100	> 100	> 100	> 93.9	> 64.7	> 100	> 100 µM	> 100 µM	> 74.9 µM	> 100										
CN(C)CCn1c(=O)c2ccc3c4c(nn3CCN(C)C)c3cc(N)ccc3n(c1=O)c24	0.428	0.257	0.579	0.584	0.621	0.438	3.8 µM	0.749 µM	0.173 µM	0.0511										
OCCOCn1cc(Cn2ncc3c(SCc4ccccc4)ncnc32)nn1	> 100	> 100	> 100	> 100	> 100	> 100	> 100 µM	> 100 µM	> 100 µM	> 100	> 100									
O=C(O)C(CSC(c1ccccc1)(c1ccccc1)c1ccccc1)N=Cc1cccs1 (stereo not given)	> 100	> 69.5	9.21	> 100	> 67.5	> 38.1	> 100 µM	63.8 µM	> 19.6 µM	> 100	> 84									
N#CC(c1ccccc1)N1CCCN(C(C#N)c2ccccc2)C1c1ccccc1O (stereo not given)	> 100	> 100	> 100	> 100	> 100	> 100	> 100 µM	> 100 µM	> 100 µM	> 100	> 100									
Nc1ccccc1N/C(=C\C(=O)C(Cl)(Cl)Cl)c1ccccc1	75.4	37.7	36.1	> 100	> 100	> 100	> 100 µM	> 100 µM	53.4 µM	> 100	41.8									
O=[N+]([O-])c1ccc2c(c1)c(N=NC(=S)NC1CCCCC1)c(O)n2CN1CCOCC1	18	24.4	25.4	16.6	25.9	26.8	19.4 µM	18.7 µM	29 µM	17.9	12.9									
CC1(C)CCC2(C(=O)OC3OC(CO)C(O)C(O)C3O)CCC3(C)C(=CCC4C5(C)CCC(OC6OC(CO)C(O)C(O)C6O)C(C)(C)C5CCC43C)C2C1 (stereo not given)	> 25	> 25	12.8	> 25	> 25	> 25	> 25 µM		> 25 µM	> 25	> 25									
CCOC(=O)C1CCn2c(nc3c2c(=O)n(C)c(=O)n3C)S1 (stereo not given)	> 100	> 100	> 100	> 100	> 100		> 100 µM		> 100 µM	> 100										
COc1c2c(cc3c1C(O)N1CC[C@]34[C@H]3O[C@H]3[C@H](OC)C[C@@H]14)OCO2 (stereo not given in full)	> 100	> 100	> 100	71.7	97.1	> 100	> 100 µM	> 100 µM	> 100 µM	> 100	> 100									
CCOC(=O)/C(=C\NCC(OCC)OCC)c1nc2ccccc2[nH]1	> 100	61.5	> 100	> 100	> 100	> 100	> 100 µM	24.4 µM	> 100 µM	> 100	> 100									
COC(=O)C1C(O)CCC2CN3CCc4c([nH]c5cccc(OC)c45)C3CC21 (stereo not given)	> 100	> 100	> 100	> 100	> 100	> 100	> 100 µM		> 100 µM	> 100	> 100									
O=[n+]1c2c(n([O-])c3ccccc31)-c1cccc3cccc-2c13	> 100			> 100		> 100	> 100 µM	> 100 µM	> 100 µM	> 100	> 100									
Nc1nc(N)c2c(n1)NC(c1ccccc1)CC(/C=C/c1ccc(Cl)cc1)=N2 (stereo not given)	25.5	32.7	31.2	36.2	29.4	24.4	8.64 µM	11.3 µM	16.7 µM	20.5	18.2									
[O-][N+](CCO)(CCO)c1ncnc2nc[nH]c12	> 100	> 100		> 100	> 100	> 100	> 100 µM	> 100 µM	> 100 µM	> 100										
CCC(C)C1NC(=O)C2CCCN2C(=O)C(CC2CO2)OC(=O)CCNC(=O)C(C)N(C)C(=O)C(C(C)C)N(C)C1=O (stereo not given)	> 100	0.0641	> 100		> 100	> 100	> 100 µM	> 100 µM	> 100 µM	> 100	> 100									
COc1ccc(N=c2ssc(C(=S)Nc3ccc(OC)cc3)c2S)cc1	> 100	> 100	> 100	> 100	> 100	> 100	> 100 µM	> 100 µM	> 100 µM	> 100	> 100									
CN(CCCNC(=O)c1cn(C)c2c1ccc1cc(Cl)c(Cl)cc12)CCCNC(=O)c1cn(C)c2c1ccc1cc(Cl)c(Cl)cc12	27.2	31.8	32.1	38.3	30.7	31.6	37.4 µM	33.1 µM	16.7 µM	25.3	33.4									

SMILES	TGI (ACHN renal) [µM]	TGI (MALME-3M melanoma) [µM]	TGI (SF-539 CNS) [µM]	TGI (SF-295 CNS) [µM]	TGI (SK-OV-3 ovarian) [µM]	TGI (DU-145 prostate) [µM]	TGI (TK-10 renal)	TGI (NCI/ADR-RES ovarian)	TGI (RXF 393 renal)	TGI (OVCAR-4 ovarian) [µM]	TGI (HOP-92 NSCLC) [µM]	GI50 (MALME-3M melanoma) [µM]	GI50 (HOP-92 NSCLC) [µM]	GI50 (ACHN renal) [µM]	GI50 (SF-539 CNS) [µM]	GI50 (DU-145 prostate) [µM]	GI50 (TK-10 renal) [µM]	GI50 (NCI/ADR-RES ovarian) [µM]	GI50 (RXF 393 renal) [µM]	GI50 (OVCAR-4 ovarian) [µM]
C[C@]12CC[C@@H]3c4ccccc4CC[C@H]3[C@@H]1CC[C@@H]2O	> 100	> 100	> 100	> 100	> 100		> 100 µM		> 100 µM											
N[C@H]1CCN(c2c(F)cc3c(=O)c(C(=O)O)cn4c3c2Oc2cc3c(ccc5ccccc53)cc2-4)C1	8.06	> 100	10.6	> 100	> 100	> 100	> 100 µM	> 100 µM	> 100 µM	> 100	6.29									
C/C(=N\NC(=O)c1cccnc1)c1cccc(/C(C)=N/NC(=O)c2cccnc2)n1	12.2	9.81	13.6	20.5	82.4		> 100 µM				59.1	2.6	7.41							
COc1ccc(/C=C(\C#N)c2nc(N)nc(N3N=C(C)CC3(C)C)n2)c(O)c1	31	31.7	29.1	43	65.1	37.7	77.7 µM	97.3 µM	33.4 µM	30.4	58.5									
O=C1c2cc3c(cc2-c2c1c1ccc(Cl)cc1c(=O)n2C[C@H](O)[C@@H](O)[C@H](O)CO)OCO3	0.118	0.505	0.0602			> 100	1.58 µM	1.91 µM	0.258 µM	> 100	0.666	0.0737	0.069	0.0254	0.016	0.0374	0.271	0.0335	0.0536	0.177
Cc1cc(O)c(C(C)C)cc1CN1CCCCC1	> 100	> 100	> 100	> 100	> 100	> 100	> 100 µM	> 100 µM	> 100 µM	> 100	> 100									
O=S(=O)(/N=C(\NO)Nc1ccc(Cl)cc1)c1ccc(S(=O)(=O)c2ccccc2)s1	89.3	41.9	63.7	> 100		46	66.3 µM	> 100 µM	87.7 µM	93.8	31.3									
CC(Sc1ccccc1)C(CO)(CO)[N+](=O)[O-] (stereo not given)	30.6	38.7	31	28.9	39.9		33.7 µM		31.3 µM	32.1										
C[C@]12CCC(=O)C=C1CC[C@@H]1[C@@H]2[C@@H](O)C[C@@]2(C)[C@H]1CC[C@]2(O)C(=O)CO	> 100	> 100	> 100	> 100	> 100	> 100	> 100 µM	> 100 µM	> 100 µM	> 100	> 100									
COC(=O)C1C(C)N1C (stereo not given)			> 100		> 100		> 100 µM		> 100 µM	> 100	> 100									
O=C(CCN1CC2CCC(CC2)C1)c1cccs1	33.6	39.3	39.2	> 100	> 53.4	33.8	23.3 µM	62.1 µM	37 µM	> 74.6	12.6									
CC[C@@]1(O)C(=O)OCc2c1cc1n(c2=O)Cc2c-1nc1ccc(O)cc1c2CC[Si](C)(C)C	0.363	1.41		0.0296		0.00129	0.693 µM and 0.749 µM	1.84 µM and 1.56 µM	0.0494 µM and 0.0625 µM	0.0538	0.0308									
NCCNc1nc(N2CCCC2)c2nc(Cl)c(NCc3ccccc3)nc2n1	3.99	3.73	3.79	3.5	3.79	3.55	3.25 µM	33.1 µM	2.91 µM	5.3	6.1									
O=S(=O)(O)c1cccc2c(N=Nc3c(O)ccc4ccccc34)cccc12	> 100	> 100		> 100	> 100	> 100	> 100 µM	> 100 µM	> 100 µM	> 100	> 100									
CC(=O)OC1CC(O)CC2=CCC3C4CCC(C(C)(O)C(O)CC5COC(=O)C5C)C4(C)CCC3C21C (stereo not given)	> 25		> 25	> 25	> 25	> 25	> 25 µM		> 25 µM	> 25	> 25									
CC(=O)N(C)c1ccc2c(ccc[n+]2[O-])c1[N+](=O)[O-]	> 100	> 100	> 100	> 100			> 100 µM		> 100 µM	> 100										
O=S1(=O)OC(c2ccc(O)cc2)(c2ccc(O)cc2)c2ccccc21	> 100	> 100	> 100	> 100	> 100	> 100	> 100 µM	> 100 µM	> 100 µM	> 100	> 100									
